This is an account of results in patent US20130030012A1, “COMPOUNDS” (Glaxo Group Limited, priority 2011, published 2013).

For experiment [1], the system named is experimental autoimmune encephalomyelitis (EAE) rats. As to the kind of experiment: Rat experimental autoimmune encephalomyelitis (EAE) model, preventive treatment. In kind it is in vivo. As for the experimental part: A further study was carried out to study the impact of Lp-PLA2 inhibitors on modulating M1/M2 imbalance. In this study, rats were induced to develop experimental autoimmune encephalomyelitis (EAE) by immunization with myelin basic protein (MBP) antigen and treated with a known Lp-PLA2 inhibitor: 5-((9-Methoxy-4-oxo-6,7-dihydro-4H-pyrimido[6,1-a]isoquinolin-2-yl)oxy)-2-(3-(trifluoromethyl)phenoxy)benzonitrile (See PCT application no. PCT/CN2011/001597). In this preventive treatment model, the compound was administered at day 0 (day of immunization) and continued to administer until day 22. The study lasted for 25 days. Rats were subsequently monitored for symptoms of EAE. Rats were immunized with MBP to develop EAE and symptoms were monitored daily. Plasma Lp-PLA2 activity, OxLDL, and LysoPC concentration were determined at different time points through the course of EAE.

The test system of experiment [2] is proinflammatory (M1) and anti-inflammatory (M2) markers in splenic and CNS infiltrating macrophages. Description: Ex vivo analysis of M1 and M2 markers in macrophages of EAE rats by realtime PCR. More on the design: species or system rat. The settings on record: spleen harvested day 13 post MBP-immunization. The method, then: Ex vivo analysis of proinflammatory (M1) and anti-inflammatory (M2) markers in control and compound treated EAE rats. Splenic macrophages were harvested at day 13 post MBP-immunization and assayed for expression of a variety of markers by realtime PCR. CNS infiltrating cells were harvested and macrophages were analyzed for expression of M1 and M2 markers by realtime PCR.

The target of experiment [3] is T1, recombinant human Lp-PLA2 (Homo sapiens, UniProt Q13093).
T1 sequence (Q13093 22-441): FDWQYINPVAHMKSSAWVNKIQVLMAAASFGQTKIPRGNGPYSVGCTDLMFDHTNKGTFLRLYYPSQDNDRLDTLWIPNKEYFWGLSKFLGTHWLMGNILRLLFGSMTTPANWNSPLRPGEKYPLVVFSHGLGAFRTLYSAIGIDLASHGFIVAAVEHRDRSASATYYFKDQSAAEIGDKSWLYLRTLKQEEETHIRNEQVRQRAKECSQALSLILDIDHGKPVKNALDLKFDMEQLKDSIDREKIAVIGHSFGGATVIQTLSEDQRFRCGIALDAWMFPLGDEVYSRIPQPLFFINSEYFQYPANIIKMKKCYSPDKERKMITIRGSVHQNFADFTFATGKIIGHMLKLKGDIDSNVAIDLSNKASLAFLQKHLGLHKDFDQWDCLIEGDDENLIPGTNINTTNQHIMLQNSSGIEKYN
Description: Recombinant human Lp-PLA2 assay (rhLp-PLA2, PED6 assay). The following applies: upper limit for pIC50 in this assay is 9.3; read-out: pIC50 values in the PED6 assay (converted). The experiment is classed as biochemical. The procedure, abridged: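 Enzyme at 4 nM (or 110 pM) in 50 mM HEPES pH 7.4, 150 mM NaCl, 1 mM CHAPS, preincubated with compound 30 min. PED6 substrate ([…] 5 μM, as printed) then added and reaction run 20 min at room temperature, protected from light. Fluorescence read at ex 480/em 540; pIC50 from curve fitting.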

Another experiment addresses T2, Lp-PLA2 in human plasma (Homo sapiens, UniProt Q13093).
T2 construct: from tissue; host or cells: pooled human plasma
T2 sequence (Q13093 22-441): T1 sequence (Q13093 22-441)
Description: Lp-PLA2 human plasma assay (Thio-PAF assay). In kind it is biochemical. The settings on record: pooled human plasma; read-out: pIC50 values in the thio-PAF assay (converted). The procedure, abridged:
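Pooled human plasma preincubated 30 min with compounds, then given substrate mix of 2.5 mM 2-thio-PAF, […] and 3.2 mM NEM (concentrations in substrate solution) in pH 7.4 HEPES/NaCl/CHAPS buffer. Quenched with TFA after 2 min; CPM-thiol fluorescence read at ex 380/em 485 to give pIC50.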

In the case of `COc1ccc2c(c1)CCn1c-2cc(Oc2ccc(Oc3cccc(C(F)(F)F)c3)c(C#N)c2)nc1=O` [5-((9-Methoxy-4-oxo-6,7-dihydro-4H-pyrimido[6,1-a]isoquinolin-2-yl)oxy)-2-(3-(trifluoromethyl)phenoxy)benzonitrile], in experiment [1] (rat EAE plasma), the LysoPC levels result is “decreased” and the “plasma Lp-PLA2 activity” value is “decreased Lp-PLA2 activity”. Moreover, the clinical disease entry in experiment [1] (rat EAE, MBP immunization, compound administered day 0 to day 22) is “reduction in clinical disease”. In experiment [2], the M1 markers expression result was “decrease in M1 markers” and the M2 markers expression entry was “increase in M2 markers”.

For `CN1CCCn2c1cc(OCCc1ccc(Oc3cccc(C(F)(F)F)c3)c(F)c1)nc2=O` [Example 105, 8-(3-fluoro-4-(3-(trifluoromethyl)phenoxy)phenethoxy)-1-methyl-3,4-dihydro-1H-pyrimido[1,6-a]pyrimidin-6(2H)-one], the IC50 in experiment [3] was at most 0.001 µM; on Lp-PLA2 in human plasma, at most 0.1 µM.

As for `N#Cc1ccc(Oc2ccc(COc3cc4n(c(=O)n3)CCCN4)cc2C#N)cc1Cl` [Example 106, 2-chloro-4-(2-cyano-4-(((6-oxo-2,3,4,6-tetrahydro-1H-pyrimido[1,6-a]pyrimidin-8-yl)oxy)methyl)phenoxy)benzonitrile], the IC50 is at most 0.01 µM in experiment [3] and at most 0.1 µM at Lp-PLA2 in human plasma.

In the case of `N#Cc1cc(COc2cc3n(c(=O)n2)CCCN3)ccc1Oc1ccc(Cl)c(C(F)(F)F)c1` [Example 107, 2-(4-chloro-3-(trifluoromethyl)phenoxy)-5-(((6-oxo-2,3,4,6-tetrahydro-1H-pyrimido[1,6-a]pyrimidin-8-yl)oxy)methyl)benzonitrile], the IC50 in experiment [3] was at most 0.001 µM; at Lp-PLA2 in human plasma, at most 0.1 µM.

For `O=c1nc(OCc2cc(F)c(F)c(F)c2)cc2n1CCCN2` [Example 113, 8-(3,4,5-trifluorobenzyloxy)-3,4-dihydro-1H-pyrimido[1,6-a]pyrimidin-6(2H)-one], the figures for the IC50 (in experiment [3]; on Lp-PLA2 in human plasma) were at most 0.01 µM and at most 0.1 µM, respectively.

On to `O=c1nc(OCc2cc(F)c(Oc3ccc(F)cc3)c(F)c2)cc2n1CCCN2` [Example 114, 8-((3,5-difluoro-4-(4-fluorophenoxy)benzyl)oxy)-3,4-dihydro-1H-pyrimido[1,6-a]pyrimidin-6(2H)-one], for which the IC50 was at most 0.001 µM in experiment [3] and at most 0.1 µM on Lp-PLA2 in human plasma.

As to `O=c1nc(OCc2cc(F)c(Oc3cccc(F)c3)c(F)c2)cc2n1CCCN2` [Example 115, 8-((3,5-difluoro-4-(3-fluorophenoxy)benzyl)oxy)-3,4-dihydro-1H-pyrimido[1,6-a]pyrimidin-6(2H)-one], the IC50 was at most 0.001 µM in experiment [3] and at most 0.1 µM on Lp-PLA2 in human plasma.

`O=c1nc(OCc2ccc(Oc3cccc(F)c3)c(F)c2)cc2n1CCCN2` [Example 116, 8-((3-fluoro-4-(3-fluorophenoxy)benzyl)oxy)-3,4-dihydro-1H-pyrimido[1,6-a]pyrimidin-6(2H)-one]: the IC50 was at most 0.001 µM in experiment [3] and at most 0.1 µM on Lp-PLA2 in human plasma.

For the molecule `O=c1nc(OCc2ccc(Oc3ccc(F)c(F)c3)c(F)c2)cc2n1CCCN2` [Example 117, 8-((4-(3,4-difluorophenoxy)-3-fluorobenzyl)oxy)-3,4-dihydro-1H-pyrimido[1,6-a]pyrimidin-6(2H)-one], the figures for the IC50 (in experiment [3]; on Lp-PLA2 in human plasma) were at most 0.001 µM and at most 0.1 µM, respectively.

Turning to `O=c1nc(OCc2ccc(Oc3ccc(F)cc3)c(F)c2)cc2n1CCCN2` [Example 118, 8-((3-fluoro-4-(4-fluorophenoxy)benzyl)oxy)-3,4-dihydro-1H-pyrimido[1,6-a]pyrimidin-6(2H)-one], the figures for the IC50 (in experiment [3]; on Lp-PLA2 in human plasma) were at most 0.001 µM and at most 0.1 µM, respectively.

Take `O=c1nc(OCc2ccc(Oc3ccc(F)c(F)c3)cc2)cc2n1CCCN2` [Example 119, 8-((4-(3,4-difluorophenoxy)benzyl)oxy)-3,4-dihydro-1H-pyrimido[1,6-a]pyrimidin-6(2H)-one]: the IC50 in experiment [3] is at most 0.001 µM; on Lp-PLA2 in human plasma, at most 0.1 µM.
